Consider two compounds from patent publication US20060182775A1, “Insect repellent” (priority 2005, published 2006).

The conditions of series [1]: cited from earlier work.
For series [2] the following is noted: human, in vivo.

With `CCN(CC)C(=O)c1cccc(C)c1` [DEET, n,n-diethyl-m-toluamide], in series [1] (in vivo), the “absorption through the skin” value is “readily absorbed through the skin and enters into the blood stream”; the “effect on the nervous system” value was “adversely affect the nervous system”. The seizures and death entry in series [1] (some individuals) was “caused seizures and even death in some individuals”.

As for citronella oil, the “burning and/or irritation of skin” value in series [2] is recorded as “caused burning and/or irritation”.
